Results taken from paper PMC3021320 (FEBS letters, 2010).
pIC50: −log10 of the molar value.

Target: T1, Janus kinase 3 (JAK3) (Homo sapiens, UniProt P52333)
T1 sequence (P52333 1-1124): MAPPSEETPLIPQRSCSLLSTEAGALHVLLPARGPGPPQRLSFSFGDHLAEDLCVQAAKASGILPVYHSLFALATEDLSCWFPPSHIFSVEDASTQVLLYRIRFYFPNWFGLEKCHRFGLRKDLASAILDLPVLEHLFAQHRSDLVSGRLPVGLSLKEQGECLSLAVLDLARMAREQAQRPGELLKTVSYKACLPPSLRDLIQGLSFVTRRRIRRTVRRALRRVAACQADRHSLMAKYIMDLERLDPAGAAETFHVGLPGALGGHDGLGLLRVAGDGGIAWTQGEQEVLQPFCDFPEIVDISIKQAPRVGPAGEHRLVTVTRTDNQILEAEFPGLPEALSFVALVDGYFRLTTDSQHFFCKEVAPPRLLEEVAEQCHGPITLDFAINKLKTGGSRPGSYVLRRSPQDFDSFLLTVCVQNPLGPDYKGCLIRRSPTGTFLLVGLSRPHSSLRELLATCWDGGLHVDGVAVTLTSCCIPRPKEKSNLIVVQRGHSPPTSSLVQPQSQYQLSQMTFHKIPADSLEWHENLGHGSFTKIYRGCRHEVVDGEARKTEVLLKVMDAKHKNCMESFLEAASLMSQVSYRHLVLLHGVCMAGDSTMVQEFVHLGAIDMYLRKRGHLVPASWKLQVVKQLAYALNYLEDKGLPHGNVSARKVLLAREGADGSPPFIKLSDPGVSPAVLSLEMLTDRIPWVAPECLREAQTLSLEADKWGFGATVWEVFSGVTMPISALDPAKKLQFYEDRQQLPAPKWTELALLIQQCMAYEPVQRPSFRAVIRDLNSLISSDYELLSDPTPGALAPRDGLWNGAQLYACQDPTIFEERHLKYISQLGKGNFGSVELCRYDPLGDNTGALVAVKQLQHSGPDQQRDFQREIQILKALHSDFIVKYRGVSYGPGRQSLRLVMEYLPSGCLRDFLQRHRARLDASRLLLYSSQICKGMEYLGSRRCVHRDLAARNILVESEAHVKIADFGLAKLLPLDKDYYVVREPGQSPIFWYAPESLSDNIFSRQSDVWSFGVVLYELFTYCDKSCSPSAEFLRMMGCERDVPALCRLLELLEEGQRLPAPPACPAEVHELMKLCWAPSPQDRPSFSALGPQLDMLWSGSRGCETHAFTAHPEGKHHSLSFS
Experiment: kinase assay
Format: cell-based

In the case of O=c1cc(-c2ccc(O)cc2)oc2cc(O)cc(O)c12 [apigenin], the pIC50 was 8.89.
